From ChEMBL document CHEMBL1155201, “Structure-activity studies on seco-pancratistatin analogs: potent inhibitors of human cytochrome P450 3A4” (Bioorg Med Chem Lett, 2009)

target: T1, Cytochrome P450 3A4 (Homo sapiens, UniProt P08684); experiment: Inhibition of human recombinant CYP3A4 assessed as biotransformation of 7-benzyloxyquinoline to 7-hydroxyquinoline at 10 uM measured every 15 mins by fluorescence intensity analysis; assay type: ADME; conditions: recombinant enzyme, 0.25 h
T1 sequence (P08684 whole entry): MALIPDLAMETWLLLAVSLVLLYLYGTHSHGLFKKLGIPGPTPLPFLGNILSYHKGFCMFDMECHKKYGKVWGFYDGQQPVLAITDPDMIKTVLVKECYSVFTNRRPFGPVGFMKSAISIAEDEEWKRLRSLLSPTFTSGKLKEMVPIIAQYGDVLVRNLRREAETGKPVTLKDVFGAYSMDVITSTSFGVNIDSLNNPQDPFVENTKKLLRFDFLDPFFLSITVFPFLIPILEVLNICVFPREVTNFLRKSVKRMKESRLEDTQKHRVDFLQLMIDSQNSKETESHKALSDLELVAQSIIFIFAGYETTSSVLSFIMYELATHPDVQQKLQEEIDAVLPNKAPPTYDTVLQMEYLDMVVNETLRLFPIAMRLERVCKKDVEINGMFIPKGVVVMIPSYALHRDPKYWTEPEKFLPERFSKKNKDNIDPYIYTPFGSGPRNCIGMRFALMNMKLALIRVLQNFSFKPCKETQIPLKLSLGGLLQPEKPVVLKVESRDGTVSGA

| inhibition (INH) | SMILES |
| --- | --- |
| Not Active | CC1(C)O[C@@H]([C@H](O)[C@@H](CNC(=O)c2ccccc2)c2ccc3c(c2)OCO3)[C@H](CO)O1 |
| Not Active | CC1(C)O[C@@H]([C@H](OC(=O)c2ccccc2)[C@@H](CN=[N+]=[N-])c2ccc3c(c2)OCO3)[C@H](CO[Si](C)(C)C(C)(C)C)O1 |

The remaining lines, values behind:

| SMILES | inhibition (INH) |
| --- | --- |
| O=C(NC[C@@H](c1ccc2c(c1)OCO2)[C@@H](O)[C@H](O)[C@@H](O)CO)c1ccccc1 | Not Active |
| COCO[C@@H]([C@@H]1OC(C)(C)O[C@H]1CO[Si](C)(C)C(C)(C)C)[C@@H](CN=[N+]=[N-])c1ccc2c(c1)OCO2 | Not Active |

target: T1, Cytochrome P450 3A4; experiment: Inhibition of human recombinant CYP3A4 assessed as biotransformation of 7-benzyloxyquinoline to 7-hydroxyquinoline measured every 15 mins by fluorescence intensity analysis; assay type: ADME; conditions: not given

| Ki [nM] | SMILES |
| --- | --- |
| 30 | COCO[C@@H]([C@@H]1OC(C)(C)O[C@H]1CO[Si](C)(C)C(C)(C)C)[C@@H](CNC(=O)c1ccccc1)c1ccc2c(c1)OCO2 |
| 170 | CC1(C)O[C@@H]([C@H](O)[C@@H](CNC(=O)c2ccccc2)c2ccc3c(c2)OCO3)[C@H](CO[Si](C)(C)C(C)(C)C)O1 |

The next lines start with the molecule.

| SMILES | Ki [nM] |
| --- | --- |
| COCO[C@@H]([C@@H]1OC(C)(C)O[C@H]1COC(C)=O)[C@@H](CNC(=O)c1ccccc1)c1ccc2c(c1)OCO2 | 1010 |
| COCO[C@@H]([C@@H]1OC(C)(C)O[C@H]1COS(=O)(=O)c1ccc(C)cc1)[C@@H](CNC(=O)c1ccccc1)c1ccc2c(c1)OCO2 | 70 |
| COCO[C@@H]([C@@H]1OC(C)(C)O[C@H]1CO)[C@@H](CNC(=O)c1ccccc1)c1ccc2c(c1)OCO2 | 1550 |
| COCO[C@@H]([C@@H]1OC(C)(C)O[C@H]1CO[Si](C)(C)C(C)(C)C)[C@@H](CNC(=O)OC(C)(C)C)c1ccc2c(c1)OCO2 | 320 |
| COCO[C@@H]([C@@H]1OC(C)(C)O[C@H]1CO[Si](c1ccccc1)(c1ccccc1)C(C)(C)C)[C@@H](CNC(=O)c1ccccc1)c1ccc2c(c1)OCO2 | 580 |
